The target of the test is Coagulation factor X (Homo sapiens, UniProt P00742). Put plainly: D3R245.

Molecules are shown by their SMILES. pIC50: −log10 of the molar value. Several values for one entry are separate records, joined by “and”; a condition that tells them apart may be missing. Identical values can stand only once.

Consider 39 molecules from BindingDB's records for doi:10.7270/Q2GM865X (D3R/Abbott, 2015).

A word on the pIC50: it is the IC50 on a negative log10 scale, so that one unit is a factor of ten.

Coagulation factor X, sequence (P00742 41-179 limits assumed): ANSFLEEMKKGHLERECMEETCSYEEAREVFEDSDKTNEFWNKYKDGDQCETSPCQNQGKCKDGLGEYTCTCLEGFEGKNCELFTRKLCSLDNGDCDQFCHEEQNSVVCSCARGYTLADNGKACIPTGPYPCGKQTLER
Coagulation factor X, sequence (P00742 235-488 limits assumed): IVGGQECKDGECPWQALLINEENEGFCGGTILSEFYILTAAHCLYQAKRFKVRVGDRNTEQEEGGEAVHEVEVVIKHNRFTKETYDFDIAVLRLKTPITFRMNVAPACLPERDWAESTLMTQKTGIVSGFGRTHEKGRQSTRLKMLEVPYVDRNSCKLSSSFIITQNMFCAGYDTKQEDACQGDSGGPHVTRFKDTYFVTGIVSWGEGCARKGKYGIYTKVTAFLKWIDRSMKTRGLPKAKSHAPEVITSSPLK

In turn, `COC(=O)CN([C@H]1CCN([C@@H](C)C(=O)N2CCOCC2)C1=O)S(=O)(=O)c1ccc2cc(Cl)ccc2c1` [GTC000001A] had a negative-log IC50 (pIC50) of 7.98.
`C[C@@H](C(=O)N1CCOCC1)N1CC[C@H](N(CC#N)S(=O)(=O)c2ccc3cc(Cl)ccc3c2)C1=O` [GTC000003A] showed a pIC50 of 7.65.
With `C=CCN([C@H]1CCN([C@@H](C)C(=O)N2CCOCC2)C1=O)S(=O)(=O)c1ccc2cc(Cl)ccc2c1` [GTC000004A] the figure was 7.17.
For `C[C@@H](C(=O)N1CCOCC1)N1CC[C@H](N(CC#N)S(=O)(=O)c2ccc(-c3ccc(Cl)s3)s2)C1=O` [GTC000008A] the value was 7.55; for `COC(=O)CN([C@H]1CCN([C@@H](C)C(=O)N2CCOCC2)C1=O)S(=O)(=O)c1ccc(-c2ccc(Cl)s2)s1` [GTC000009A], 7.81.
For `CCC(=O)CN([C@H]1CCN([C@@H](C)C(=O)N2CCOCC2)C1=O)S(=O)(=O)c1ccc(-c2ccc(Cl)s2)s1` [GTC000010A] the value was 7.77; for `C[C@@H](C(=O)N1CCOCC1)N1CC[C@H](N(CC#N)S(=O)(=O)/C=C/c2ccc(Cl)cc2)C1=O` [GTC000011A], 7.06.
Regarding `CCC(=O)CN([C@H]1CCN([C@@H](C)C(=O)N2CCOCC2)C1=O)S(=O)(=O)/C=C/c1ccc(Cl)cc1` [GTC000012A], the pIC50 is 7.22.
For `COC(=O)CN([C@H]1CCN([C@@H](C)C(=O)N2CCOCC2)C1=O)S(=O)(=O)/C=C/c1ccc(Cl)cc1` [GTC000013A] the value was 7.22; for `C[C@@H](C(=O)N1CCOCC1)N1CC[C@H](N(Cc2ccoc2)S(=O)(=O)c2ccc3cc(Cl)ccc3c2)C1=O` [GTC000014A], 7.40; for `C[C@@H](C(=O)N1CCOCC1)N1CC[C@H](N(Cc2cccnc2)S(=O)(=O)c2ccc3cc(Cl)ccc3c2)C1=O` [GTC000015A], 7.58.
For `C[C@@H](C(=O)N1CCOCC1)N1CC[C@H](N(CC(=O)O)S(=O)(=O)c2ccc(-c3ccc(Cl)s3)s2)C1=O` [GTC000016A] the value was 7.62; for `C[C@@H](C(=O)N1CCOCC1)N1CC[C@H](N(CC(=O)O)S(=O)(=O)/C=C/c2ccc(Cl)cc2)C1=O` [GTC000017A], 6.88.
For `CCOC(=O)CN([C@H]1CCN([C@@H](C)C(=O)N2CCOCC2)C1=O)S(=O)(=O)c1ccc2cc(Cl)ccc2c1` [GTC000018A] the value was 6.45.
`C[C@@H](C(=O)N1CCOCC1)N1CC[C@H](N(Cc2ccco2)S(=O)(=O)c2ccc3cc(Cl)ccc3c2)C1=O` [GTC000019A] showed a negative logarithm of the IC50 (pIC50) of 7.17.
For `C[C@@H](C(=O)N1CCOCC1)N1CC[C@H](N(Cc2nccs2)S(=O)(=O)c2ccc3cc(Cl)ccc3c2)C1=O` [GTC000020A] the value was 7.42; for `C[C@@H](C(=O)N1CCOCC1)N1CC[C@H](N(CC(=O)C(C)(C)C)S(=O)(=O)c2ccc3cc(Cl)ccc3c2)C1=O` [GTC000021A], 7.77.
Regarding `C[C@@H](C(=O)N1CCOCC1)N1CC[C@H](N(CC(=O)OC(C)(C)C)S(=O)(=O)c2ccc3cc(Cl)ccc3c2)C1=O` [GTC000022A], the pIC50 was 8.19.
For `CCN([C@H]1CCN([C@@H](C)C(=O)N2CCOCC2)C1=O)S(=O)(=O)c1ccc2cc(Cl)ccc2c1` [GTC000023A] the value was 7.27; for `Cc1nc(CN([C@H]2CCN([C@@H](C)C(=O)N3CCOCC3)C2=O)S(=O)(=O)c2ccc3cc(Cl)ccc3c2)cs1` [GTC000024A], 7.76; for `CCC(=O)CN([C@H]1CCN([C@@H](C)C(=O)N2CCOCC2)C1=O)S(=O)(=O)c1cc2ccc(Cl)cc2s1` [GTC000025A], 7.57.
With `C[C@@H](C(=O)N1CCOCC1)N1CC[C@H](N(CC(N)=O)S(=O)(=O)c2cc3ccc(Cl)cc3s2)C1=O` [GTC000026A] the figure was 7.30; with `CCC(=O)CN([C@H]1CCN([C@@H](C)C(=O)N2CCOCC2)C1=O)S(=O)(=O)c1cc2cc(Cl)ccc2s1` [GTC000027A], 6.56.
For `C[C@@H](C(=O)N1CCOCC1)N1CC[C@H](N(Cc2ccccn2)S(=O)(=O)c2ccc3cc(Cl)ccc3c2)C1=O` [GTC000028A] the value was 8.10 and 7.92; for `C[C@@H](C(=O)N1CCOCC1)N1CC[C@H](N(Cc2ccncc2)S(=O)(=O)c2ccc3cc(Cl)ccc3c2)C1=O` [GTC000029A], 7.96; for `C[C@@H](C(=O)N1CCOCC1)N1CC[C@H](N(CC(N)=O)S(=O)(=O)/C=C/c2ccc(Cl)cc2)C1=O` [GTC000030A], 7.27.
With `C[C@@H](C(=O)N1CCOCC1)N1CC[C@H](N(CC(N)=O)S(=O)(=O)c2cc3cc(Cl)ccc3s2)C1=O` [GTC000031A], the pIC50 was 6.66.
For `C[C@@H](C(=O)N1CCOCC1)N1CC[C@H](N(CC(N)=O)S(=O)(=O)c2ccc(-c3ccc(Cl)s3)s2)C1=O` [GTC000032A] the value was 7.85.
In turn, `C[C@@H](C(=O)N1CCOCC1)N1CC[C@H](N(c2ccccc2)S(=O)(=O)c2ccc3cc(Cl)ccc3c2)C1=O` [GTC000033A] gave a pIC50 of 6.58.
For `C[C@@H](C(=O)N1CCOCC1)N1CC[C@H](N(c2ccc(F)cc2)S(=O)(=O)c2ccc3cc(Cl)ccc3c2)C1=O` [GTC000034A], the pIC50 is 6.77.
With `C[C@@H](C(=O)N1CCOCC1)N1CC[C@H](N(c2ccsc2)S(=O)(=O)c2ccc3cc(Cl)ccc3c2)C1=O` [GTC000036A] the figure was 6.82; with `C[C@@H](C(=O)N1CCOCC1)N1CC[C@H](N(c2cccnc2)S(=O)(=O)c2ccc3cc(Cl)ccc3c2)C1=O` [GTC000037A], 7.11.
As to `C[C@@H]1CN(C(=O)[C@H](C)N2CC[C@H](N(CC(N)=O)S(=O)(=O)c3ccc4cc(Cl)ccc4c3)C2=O)C[C@H](C)O1` [GTC000038A], the pIC50 was 7.58.
With `C[C@@H](C(=O)N1C[C@@H]2C[C@H]1CO2)N1CC[C@H](N(CC(N)=O)S(=O)(=O)c2ccc3cc(Cl)ccc3c2)C1=O` [GTC000039A] the figure was 7.01.
With `C[C@@H](C(=O)N1CCOCC1)N1CC[C@H](N(CCN2CCOCC2)S(=O)(=O)c2ccc3cc(Cl)ccc3c2)C1=O` [GTC000040A] the figure was 8.08; with `CC(=O)NCCN([C@H]1CCN([C@@H](C)C(=O)N2CCOCC2)C1=O)S(=O)(=O)c1ccc2cc(Cl)ccc2c1` [GTC000041A], 7.25.
`C[C@@H](C(=O)N1CCOCC1)N1CC[C@H](N(CCN(C)C)S(=O)(=O)c2ccc3cc(Cl)ccc3c2)C1=O` [GTC000042A] showed a pIC50 of 7.62.
With `C[C@@H](C(=O)N1CCOCC1)N1CC[C@H](N(CCN2CCCC2)S(=O)(=O)c2ccc3cc(Cl)ccc3c2)C1=O` [GTC000043A] the figure was 7.92; with `C[C@@H](C(=O)N1CCOCC1)N1CC[C@H](N(C)S(=O)(=O)/C=C/c2ccc(Cl)s2)C1=O` [GTC000044A], 6.39.
